Test results: US9290555B2, “Reagents and methods for treating dental disease” (University of Washington Through its Center for …, priority 2011, dated 2016)
“Also recorded” adds a separate entry of the source.

Legend:
Binding analysis via QCM = details: for Kd: binding to HAp, read-out: KD (dissociation constant); for binding affinity to HAp (in words): compared with ADP1, ADP2, ADP4, ADP7
Description: Calcium phosphate coated QCM electrodes were purchased commercially. (Q-Sense, Sweden) The diameter of the crystals and electrodes were 8.8 mm and 5.0 mm, respectively. […] A 12 V DC current was applied to the oscillator circuit to drive the crystal, and the frequency was measured with a Hewlett-Packard 53131A frequency counter sampling at 225 Hz (Universal Counter, Agilent Technologies). After the crystal was mounted in the cell, they were cleaned and dried with high-purity nitrogen gas and used immediately. To establish a stable baseline, a sufficient amount of buffer solution was introduced into the cell before adding the peptide. The frequency change of the crystal in pure buffer solution was recorded for 30 to 60 minutes. After this, the desired amount of ADPs was introduced into the cell and the frequency change was recorded continuously.
The dissociation constants (KD) of the peptides were determined. The KD is an equilibrium constant that represents the concentration necessary to achieve 50% surface coverage. […] (FIG. 2a, Table 1)

[1] = Microstructural and crystallographic analysis of the synthesized minerals (SEM, TEM, XRD); details: for mineral morphology: SEM/TEM of minerals formed in solution with peptide; for crystal phase of the mineral formed (XRD): XRD of minerals formed in solution; for amount of radiating crystalline blade-like particles emanating from the spherulites: compared to weak binders and no peptide control
Description: (§1) For the mineralization experiments, mineralization solutions containing 24 mM Ca^2+ and 14.4 mM β-GP and 0.4 mM peptide was prepared in 25 mM Tris-HCl buffer (pH 7.4). A mineralization solution containing no peptide was prepared as the negative control. Mineralization reactions were commenced by adding bacterial AP to the solution at a final concentration of 1.4×10^−6 g/mL. Subsequent mineral formation kinetics was monitored by continuous measuring of absorbance at 820 nm wave length using a Tecan Safire microplate reader (Tecan Trading AG, Switzerland) as well as by periodic assays of calcium ions throughout the reaction. For periodic assays of calcium and phosphate, 10 μL of the reaction solution was collected at 0.25-, 0.5-, 1- and 1.5-hr. The calcium concentration in the solutions was determined using QuantiChrome Calcium Assay Kit (Bioassays, U.S.A.). All mineralization reactions were carried out at 37° C. Samples for electron microscopy analysis were prepared by placing a 10 μL aliquot from the reaction solution onto a carbon coated TEM grid. After 1 min, liquid on the TEM grid was carefully wicked away and the grids were vacuum-dried for 5 min. The dried grids were stored in a desiccated container until analyzed. SEM imaging was performed at 10 kV using a JSM 7000F (JEOL, Japan) SEM in secondary electron imaging mode. TEM imaging and electron diffraction analysis were performed using an EMS 420T TEM (FEI, Inc., USA; formerly Philips, The Netherlands) operated at 120 kV.

[2] = In vitro solution biomineralization, alkaline phosphatase based mineralization model; type: biochemical; details: for mineralization trend (kinetics): 0.4 mM peptide, 24 mM Ca2+, 14.4 mM β-GP, 37° C., initial 90 minutes; for available free Ca2+ consumed: at the end of the 90 minutes
Description: An alkaline phosphatase (AP) based mineralization model was used as described before to investigate the mineralization behaviors of the peptides (22) (see Supporting Information for details). […]
as §1

[3] = Ex vivo re-mineralization of tooth root; parameters: species or system human
Description: The cementum-root stock blocks were prepared from single rooted, extracted adult teeth collected at the University of Washington Dental School clinics. No individual identifiers were used and the use of such material complied with the Institutional Review Board guidelines. The teeth were kept in 70% ethanol solution at 4° C. until the specimens were prepared. Cylindrical blocks of 4 mm diameter were cut from the acellular cementum, close to the cementoenamel junction using a trephine bur. The teeth were kept immersed in 70% ethanol-phosphate buffered saline (PBS) during the cutting to prevent heat damage due to friction. The cut cylindrical blocks were cleaned of contaminating material using PBS and demineralized with 35% phosphoric acid gel for 10 seconds. The specimens were stored in 70% ethanol-PBS solution at 4° C. until used.
Prior to coating the specimens with the peptide, the previously cut cylindrical blocks were rehydrated and equilibrated for 2 hours in 24 mM Tris-HCl buffer, pH 7.4. The lyophilized ADP was dissolved in 24 mM Tris-HCl buffer, pH 7.4 to a final concentration of 0.4 mM. A 50 μl drop of the ADP solution was dropped on top of the specimens and left on the specimen for 10 minutes at room temperature in a water saturated chamber to prevent evaporation. Control specimens were identically prepared only by dropping 50 μl of buffer alone. At the end of 10 minutes, the samples were rinsed twice with deionized water. Fluorescent microscopy analysis was performed with fluorescein isothiocyanate-labeled ADP (fADP).
Solutions of 9.6 mM CaCl2 and 5.6 mM (PO4)^−3, a mixture of NaH2PO4—H2O and Na2HPO4-7H20, were prepared in 24 mM Tris-HCl buffer, pH 7.4. The peptide coated and non-coated control specimens were placed in 300 μl of Ca^+2 solution and an equal volume of (PO4)^−3 solution was added to achieve a final concentration of 4.8 mM of Ca^+2 and 2.8 mM of (PO4)^−3. The specimens were incubated in the mineralization solution for 2 hours at 37° C. in a water saturated atmosphere, removed from the mineralization solution and rinsed with 24 mM Tris-HCl buffer, pH 7.4. […]

HPPSHTLQPHHHLPVV [ADP4]
Kd (Binding analysis via QCM): 1430 nM
mineral morphology [1]: spherulitic particles
crystal phase of the mineral formed (XRD) [1]: none of the other strong binders
amount of radiating crystalline blade-like particles emanating from the spherulites [1]: slightly higher

HPPSHTLQPHHHLPVVPAQQPVAPQQPMMPVPGHHSMTPTQH [ADP7]
Kd (Binding analysis via QCM): 1150 nM
mineral morphology [1]: Needle like nano-crystals
crystal phase of the mineral formed (XRD) [1]: crystalline HAp; also recorded: HA precipitation was only observed in ADP7; also recorded: characteristic peaks belonging to the HAp crystal structure
mineralization trend (kinetics) [2]: slow mineralization trend

HTLQPHHHLPVV [ADP1]
Kd (Binding analysis via QCM): 1400 nM
mineral morphology [1]: spherulitic particles
crystal phase of the mineral formed (XRD) [1]: none of the other strong binders
amount of radiating crystalline blade-like particles emanating from the spherulites [1]: slightly higher

LPPLFSMPLSPILPELPLEAWPAT [ADP6]
Kd (Binding analysis via QCM): 6250 nM
binding affinity to HAp (in words) (Binding analysis via QCM): lower
mineral morphology [1]: spherulitic particles

PAQQPVAPQQPMMP [ADP8]
Kd (Binding analysis via QCM): 3140 nM
binding affinity to HAp (in words) (Binding analysis via QCM): lower
mineral morphology [1]: spherulitic particles

PGYINLSYEKSHSQAINTDRTA [ADP5]
Kd (Binding analysis via QCM): 50000 nM
binding affinity to HAp (in words) (Binding analysis via QCM): lower
Ca/P ratio ([3]; EDX spectra of the cementomimetic layer): 1.67
thickness of mineral layer ([3]; SEM and TEM cross-section): 10-15 μm
elemental composition by EDS ([3]; peptide coated samples after 2 hours): substantial Ca and P peaks
mineral morphology [1]: much smaller spherulites
mineralization trend (kinetics) [2]: fast mineralization trend
available free Ca2+ consumed [2]: more than half

VPGHHSMTPTQH [ADP2]
Kd (Binding analysis via QCM): 1610 nM
mineral morphology [1]: spherulitic particles
crystal phase of the mineral formed (XRD) [1]: none of the other strong binders
amount of radiating crystalline blade-like particles emanating from the spherulites [1]: slightly higher

WPATDKTKREEVD [ADP3]
Kd (Binding analysis via QCM): 6400 nM
binding affinity to HAp (in words) (Binding analysis via QCM): lower
mineral morphology [1]: spherulitic particles

B1: rM180: recombinant mouse 180 amino acid long amelogenin (protein, UniProt P63277 17-210, looked up)
Amelogenin, X isoform: MPLPPHPGSPGYINLSYEKSHSQAINTDRTALVLTPLKWYQSMIRQPYPSYGYEPMGGWLHHQIIPVLSQQHPPSHTLQPHHHLPVVPAQQPVAPQQPMMPVPGHHSMTPTQHHQPNIPPSAQQPFQQPFQPQAIPPQSHQPMQPQSPLHPMQPLAPQPPLPPLFSMQPLSPILPELPLEAWPATDKTKREEVD
mineral morphology [1]: Needle like nano-crystals
crystal phase of the mineral formed (XRD) [1]: crystalline HAp
crystal phase of the mineral formed (XRD) ([1]; listed as amelogenin): characteristic peaks belonging to the HAp crystal structure
mineralization trend (kinetics) [2]: fast mineralization trend
available free Ca2+ consumed [2]: more than half
